From US10519147B2 (Merck Sharp & Dohme Corp., priority 2015, dated 2019)
pIC50: −log10 of the molar value.

What was measured:
[1] = target: T1, human Nav1.7 (Homo sapiens, UniProt Q15858); experiment: IonWorks Quattro automated patch-clamp, inactivated state block of Nav1.7; format: cell-based; details: channels stably expressed in HEK 293 cells; double-pulse protocol, inactivated state block; read-out: potency for the Nav 1.7 sodium ion channel (IC50, as measured by IonWorks)
T1 construct: expressed in transfected cells; host or cells: HEK 293
T1 sequence (Q15858 whole entry): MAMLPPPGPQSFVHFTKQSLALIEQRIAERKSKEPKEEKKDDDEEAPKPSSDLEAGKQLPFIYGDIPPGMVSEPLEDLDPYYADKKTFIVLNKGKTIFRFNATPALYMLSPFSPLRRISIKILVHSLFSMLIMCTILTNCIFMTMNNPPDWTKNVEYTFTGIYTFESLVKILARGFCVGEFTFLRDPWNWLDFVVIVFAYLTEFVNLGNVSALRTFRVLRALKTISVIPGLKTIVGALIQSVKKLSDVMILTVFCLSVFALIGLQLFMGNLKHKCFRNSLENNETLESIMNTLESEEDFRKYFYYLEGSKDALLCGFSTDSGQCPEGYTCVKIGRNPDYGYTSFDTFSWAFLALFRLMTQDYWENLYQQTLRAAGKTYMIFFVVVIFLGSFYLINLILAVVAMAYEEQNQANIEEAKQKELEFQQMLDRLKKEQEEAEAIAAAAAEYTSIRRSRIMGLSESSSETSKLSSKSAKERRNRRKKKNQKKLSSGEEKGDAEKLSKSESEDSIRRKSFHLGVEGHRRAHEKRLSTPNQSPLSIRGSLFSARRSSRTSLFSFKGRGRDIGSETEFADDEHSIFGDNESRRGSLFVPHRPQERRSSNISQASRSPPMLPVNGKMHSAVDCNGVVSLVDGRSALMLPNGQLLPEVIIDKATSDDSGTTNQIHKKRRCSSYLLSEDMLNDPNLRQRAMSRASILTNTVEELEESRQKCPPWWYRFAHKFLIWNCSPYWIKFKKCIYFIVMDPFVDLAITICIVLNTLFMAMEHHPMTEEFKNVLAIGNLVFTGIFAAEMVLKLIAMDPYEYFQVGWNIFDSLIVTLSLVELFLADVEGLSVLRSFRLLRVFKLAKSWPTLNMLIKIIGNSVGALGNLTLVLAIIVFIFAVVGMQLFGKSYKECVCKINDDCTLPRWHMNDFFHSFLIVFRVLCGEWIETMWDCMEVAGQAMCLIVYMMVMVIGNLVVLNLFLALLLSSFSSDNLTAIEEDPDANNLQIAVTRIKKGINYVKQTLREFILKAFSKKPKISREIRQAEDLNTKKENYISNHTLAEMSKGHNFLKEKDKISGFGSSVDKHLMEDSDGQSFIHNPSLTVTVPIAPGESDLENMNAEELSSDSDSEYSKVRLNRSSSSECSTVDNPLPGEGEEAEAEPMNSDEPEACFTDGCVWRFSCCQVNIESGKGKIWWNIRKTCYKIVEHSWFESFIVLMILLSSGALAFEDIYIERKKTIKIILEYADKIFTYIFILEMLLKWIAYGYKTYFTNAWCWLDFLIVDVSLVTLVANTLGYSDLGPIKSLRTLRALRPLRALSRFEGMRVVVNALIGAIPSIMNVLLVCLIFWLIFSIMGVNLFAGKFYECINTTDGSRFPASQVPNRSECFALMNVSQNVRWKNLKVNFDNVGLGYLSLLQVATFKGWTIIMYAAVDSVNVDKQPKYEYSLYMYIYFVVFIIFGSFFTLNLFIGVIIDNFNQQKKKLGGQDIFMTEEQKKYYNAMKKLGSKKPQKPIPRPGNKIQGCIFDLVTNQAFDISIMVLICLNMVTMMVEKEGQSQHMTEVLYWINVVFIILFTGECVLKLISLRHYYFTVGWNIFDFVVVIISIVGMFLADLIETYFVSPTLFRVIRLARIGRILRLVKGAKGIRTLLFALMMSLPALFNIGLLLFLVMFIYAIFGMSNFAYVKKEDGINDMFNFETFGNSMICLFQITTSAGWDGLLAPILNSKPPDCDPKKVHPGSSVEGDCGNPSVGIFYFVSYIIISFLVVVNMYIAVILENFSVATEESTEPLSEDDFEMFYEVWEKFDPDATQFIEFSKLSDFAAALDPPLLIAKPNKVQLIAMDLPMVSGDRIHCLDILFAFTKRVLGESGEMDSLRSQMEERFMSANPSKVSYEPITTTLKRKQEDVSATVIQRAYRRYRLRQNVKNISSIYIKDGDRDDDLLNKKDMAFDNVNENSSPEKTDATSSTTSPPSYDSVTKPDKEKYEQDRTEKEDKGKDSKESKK
Protocol: (§1) Compounds were tested on human Nav1.7 and Nav1.5 channels stably expressed in HEK 293 cells. […] Cells were sealed on a planar substrate using the Population Patch […] (PPC) technology. Electrical access was obtained using both nystatin and amphotericin. A double-pulse protocol was used for the determination of IC50 values for inactivated state block. Nav1.7 and Nav1.5 expressing cells were voltage clamped at −100 mV and −110 mV, respectively. A depolarizing prepulse to −10 mV (Nav1.7) or −30 mV (Nav1.5) for 1000 ms followed by a 10 ms repolarization to −100 mV (Nav1.7) or −110 mV (Nav1.5) was given to generate fractional channel inactivation of 50%, followed by a 10 ms test pulse to −10 mV (Nav1.7) or −30 mV (Nav1.5) to measure peak current in control conditions and after compound addition. The following recording solutions were used (mM). External: 150 NaCl, 2 CaCl2, 5 KCl, 1 Mg Cl2, 10 HEPES, 12 Dextrose; internal: 120 CsF, 30 CsCl, 10 EGTA, 5 HEPES, 5 NaF, 2 MgCl2.
(§2) For all electrophysiology experiments, offline analysis was used to determine percent inhibition as a function of drug concentration. IC50 values were determined by fitting to the Hill equation.

[2] = target: T2, human Nav1.5 (Homo sapiens, UniProt Q14524); experiment: IonWorks Quattro automated patch-clamp, Nav1.5 (selectivity against Nav1.7); format: cell-based; details: IonWorks measurement, HEK 293 cells, inactivated state block
T2 construct: expressed in transfected cells; host or cells: HEK 293
T2 sequence (Q14524 whole entry): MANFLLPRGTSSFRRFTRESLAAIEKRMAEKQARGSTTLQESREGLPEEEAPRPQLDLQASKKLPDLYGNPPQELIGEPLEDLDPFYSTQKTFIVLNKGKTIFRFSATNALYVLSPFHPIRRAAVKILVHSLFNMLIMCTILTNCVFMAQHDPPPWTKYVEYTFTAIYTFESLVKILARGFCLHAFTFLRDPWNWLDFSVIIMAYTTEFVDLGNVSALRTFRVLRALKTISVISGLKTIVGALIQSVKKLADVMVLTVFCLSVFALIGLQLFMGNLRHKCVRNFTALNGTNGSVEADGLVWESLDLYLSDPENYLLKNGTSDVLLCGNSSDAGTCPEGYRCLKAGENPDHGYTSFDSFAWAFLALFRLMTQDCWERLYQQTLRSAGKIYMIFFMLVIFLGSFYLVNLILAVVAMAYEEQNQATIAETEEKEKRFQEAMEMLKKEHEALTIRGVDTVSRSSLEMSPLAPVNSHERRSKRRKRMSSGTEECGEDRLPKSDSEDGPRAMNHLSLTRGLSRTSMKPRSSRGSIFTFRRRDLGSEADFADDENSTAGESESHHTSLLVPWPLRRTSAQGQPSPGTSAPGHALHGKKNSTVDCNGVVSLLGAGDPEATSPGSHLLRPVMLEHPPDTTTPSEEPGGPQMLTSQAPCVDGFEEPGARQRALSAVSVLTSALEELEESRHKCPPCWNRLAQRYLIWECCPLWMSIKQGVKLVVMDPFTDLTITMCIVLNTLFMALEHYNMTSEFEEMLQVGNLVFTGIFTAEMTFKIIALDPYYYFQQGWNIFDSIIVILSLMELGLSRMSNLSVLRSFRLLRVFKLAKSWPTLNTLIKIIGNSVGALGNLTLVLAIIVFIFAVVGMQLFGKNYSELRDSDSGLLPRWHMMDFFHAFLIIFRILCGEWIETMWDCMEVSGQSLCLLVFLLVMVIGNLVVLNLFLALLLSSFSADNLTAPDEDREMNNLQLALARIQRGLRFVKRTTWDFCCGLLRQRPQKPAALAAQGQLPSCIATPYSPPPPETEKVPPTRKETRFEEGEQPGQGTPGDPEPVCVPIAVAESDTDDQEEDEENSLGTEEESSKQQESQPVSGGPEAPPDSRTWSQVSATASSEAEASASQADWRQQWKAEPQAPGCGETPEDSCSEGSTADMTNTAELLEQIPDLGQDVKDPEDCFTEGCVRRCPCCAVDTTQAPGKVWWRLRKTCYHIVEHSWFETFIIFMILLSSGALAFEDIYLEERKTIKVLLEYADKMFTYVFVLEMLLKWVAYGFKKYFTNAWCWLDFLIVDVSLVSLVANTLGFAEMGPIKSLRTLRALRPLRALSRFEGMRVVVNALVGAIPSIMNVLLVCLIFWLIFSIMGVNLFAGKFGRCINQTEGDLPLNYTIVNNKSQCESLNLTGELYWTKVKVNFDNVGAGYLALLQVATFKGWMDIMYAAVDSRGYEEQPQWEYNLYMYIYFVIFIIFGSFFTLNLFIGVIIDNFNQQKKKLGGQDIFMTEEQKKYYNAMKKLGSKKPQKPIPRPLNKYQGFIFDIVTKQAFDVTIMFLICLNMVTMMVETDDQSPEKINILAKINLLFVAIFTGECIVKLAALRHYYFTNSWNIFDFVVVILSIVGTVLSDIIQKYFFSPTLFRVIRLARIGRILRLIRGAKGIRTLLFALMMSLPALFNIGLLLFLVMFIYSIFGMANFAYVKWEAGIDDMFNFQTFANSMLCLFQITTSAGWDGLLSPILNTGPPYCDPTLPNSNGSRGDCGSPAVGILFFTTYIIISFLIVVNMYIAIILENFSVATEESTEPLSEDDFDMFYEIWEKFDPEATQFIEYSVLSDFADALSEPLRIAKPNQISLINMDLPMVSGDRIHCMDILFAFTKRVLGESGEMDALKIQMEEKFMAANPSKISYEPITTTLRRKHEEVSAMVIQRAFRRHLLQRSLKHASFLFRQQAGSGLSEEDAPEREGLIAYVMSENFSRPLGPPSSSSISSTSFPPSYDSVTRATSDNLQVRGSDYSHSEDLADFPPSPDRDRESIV
Protocol: as §1, §2

Compound	pIC50 [1]	ratio of Nav 1.7 potency:Nav 1.5 potency [2]
O=S(=O)(Nc1ncc(F)s1)c1cc(Cl)c(NCCCCNC[C@H]2CCCCN2)cc1F [Ex 16-16, 5-chloro-2-fluoro-N-(5-fluoro-1,3-thiazol-2-yl)-4-[(4-{[(2R)-piperidin-2-yl-methyl]amino}butyl)-amino] benzenesulfonamide]	8.06	> 3800
N[C@@H]1CCC[C@H]1NCCCCNc1cc(F)c(S(=O)(=O)Nc2ncns2)cc1Br [Ex 16-94, 4-[4-[[(1R,2R)-2-aminocyclopentyl]amino]butylamino]-5-bromo-2-fluoro-N-(1,2,4-thiadiazol-5-yl)benzenesulfonamide]	8.14	3150
O=S(=O)(Nc1ncns1)c1cc(Cl)c(NCCCCNCC[C@@H]2CCCN2)cc1F [Ex 16-21, 5-chloro-2-fluoro-4-{[4-({2-[(2S)-pyrrolidin-2-yl]ethyl}-amino)butyl]amino}-N-1,2,4-thiadiazol-5-ylbenzene-sulfonamide]	7.51	> 1046
NCC1(NCCCCNc2cc(F)c(S(=O)(=O)Nc3ncns3)cc2Br)CC1 [Ex 16-98, 4-[4-[[1-(aminomethyl)cyclopropyl]amino]butylamino]-5-bromo-2-fluoro-N-(1,2,4-thiadiazol-5-yl) benzenesulfonamide]	8.07	> 3840
C[C@H](NCCCCNc1cc(F)c(S(=O)(=O)Nc2nccs2)cc1Cl)[C@@H]1CCCN1 [Ex 1-27, 5-chloro-2-fluoro-4-{[4-({(1S)-1-[(2S)-pyrrolidin-2-yl]ethyl}amino)butyl]-amino}-N-1,3-thiazol-2-yl-benzenesulfonamide]	7.51	> 1070
NC1CCC1NCCCCNc1cc(F)c(S(=O)(=O)Nc2ncns2)cc1Cl (single isomer, unassigned) [Ex 16-83, 4-[4-[[(1R,2R) or (1S,2S)-2-aminocyclobutyl]amino]butylamino]-5-chloro-2-fluoro-N-(1,2,4-thiadiazol-5-yl)benzenesulfonamide]	8.33	> 7020
CC(C)C[C@@H](CNCCCCNc1cc(F)c(S(=O)(=O)Nc2ncns2)cc1Cl)[C@@H](C)N [Ex 16-85, 4-((4-(((S)-2-((R)-1-aminoethyl)-4-methylpentyl)-amino)butyl)amino)-5-chloro-2-fluoro-N-(1,2,4-thiadiazol-5-yl) benzenesulfonamide]	8.35	> 7330
N[C@H]1CCC[C@H]1NCCCCNc1cc(F)c(S(=O)(=O)Nc2ncc(F)s2)cc1Cl [Ex 16-64, 4-[(4-{[(1R,2S)-2-aminocyclopentyl]amino}butyl)amino]-5-chloro-2-fluoro-N-(5-fluoro-1,3-thiazol-2-yl) benzenesulfonamide]	7.64	> 1430
NC1(CNCCCCNc2cc(F)c(S(=O)(=O)Nc3ncc(F)s3)cc2Cl)CC1 [Ex 16-63, 4-[(4-{[(1-aminocyclopropyl)methyl]amino}butyl)amino]-5-chloro-2-fluoro-N-(5-fluoro-1,3-thiazol-2-yl)benzenesulfonamide]	7.25	–
C[C@@H](CN)NCCCCNc1cc(F)c(S(=O)(=O)Nc2ncns2)cc1Cl [Ex 16-67, 4-[(4-{[(1S)-2-amino-1-methylethyl]amino}butyl)amino]-5-chloro-2-fluoro-N-1,2,4-thiadiazol-5-ylbenzenesulfonamide]	7.80	–
O=S(=O)(Nc1nccs1)c1cc(Br)c(NCCCCN[C@@H]2CCNC2)cc1F [Ex 16-37, 5-bromo-2-fluoro-4-({4-[(3R)-pyrrolidin-3-ylamino]-butyl}amino)-N-1,3-thiazol-2-ylbenzenesulfonamide]	7.72	–
CC(C)(CN)NCCCCNc1cc(F)c(S(=O)(=O)Nc2ncc(F)s2)cc1Cl [Ex 16-61, 4-({4-[(2-amino-1,1-dimethylethyl)amino]butyl}amino)-5-chloro-2-fluoro-N-(5-fluoro-1,3-thiazol-2-yl)benzenesulfonamide]	7.68	–
C[C@H](CCN)NCCCCNc1cc(F)c(S(=O)(=O)Nc2nccs2)cc1Cl [Ex 16-26, 4-[(4-{[(1R)-3-amino-1-methylpropyl]amino}butyl)amino]-5-chloro-2-fluoro-N-1,3-thiazol-2-ylbenzene-sulfonamide]	7.55	–
CNCCNCCCCNc1cc(F)c(S(=O)(=O)Nc2nccs2)cc1Cl [Ex 5-04]	7.92	–
CN(CCN)CCCCNc1cc(F)c(S(=O)(=O)Nc2nccs2)cc1Cl [Ex 1-15, 4-({4-[(2-aminoethyl) (methyl)amino]butyl}amino)-5-chloro-2-fluoro-N-1,3-thiazol-2-ylbenzenesulfonamide]	7.54	–
C[C@@H](CN)NCCCCNc1cc(F)c(S(=O)(=O)Nc2ncc(F)s2)cc1Cl [Ex 16-66, 4-[(4-{[(1S)-2-amino-1-methylethyl]amino}butyl)amino]-5-chloro-2-fluoro-N-(5-fluoro-1,3-thiazol-2-yl)benzenesulfonamide]	7.80	–
N[C@H]1CCCC[C@H]1NCCCCNc1cc(F)c(S(=O)(=O)Nc2nccs2)cc1Cl [Ex 1-30, 4-[(4-{[(1R,2S)-2-aminocyclohexyl]amino}butyl)amino]-5-chloro-2-fluoro-N-1,3-thiazol-2-ylbenzenesulfonamide]	7.72	–
O=S(=O)(Nc1ncns1)c1cc(Cl)c(NCCCCNC[C@@H]2CCN2)cc1F [Ex 14-04, 4-[(4-{[(2S)-azetidin-2-yl-methyl]-amino}butyl)amino]-5-chloro-2-fluoro-N-1,2,4-thiadiazol-5-ylbenzene-sulfonamide]	7.85	–
CC(C)(CN)NCCCCNc1cc(F)c(S(=O)(=O)Nc2nccs2)cc1Cl [Ex 1-10, 4-({4-[(2-amino-1,1-dimethylethyl)amino]-butyl}amino)-5-chloro-2-fluoro-N-1,3-thiazol-2-yl-benzenesulfonamide]	7.55	–
O=S(=O)(Nc1nccs1)c1cc(Cl)c(NCCCCNC[C@H]2CCCN2)cc1F [Ex 7-6, (R)-5-chloro-2-fluoro-4-((4-((pyrrolidin-2-ylmethyl)amino)butyl)amino)-N-(thiazol-2-yl)benzenesulfonamide]	7.47	–
C[C@H](CCN)NCCCCNc1cc(F)c(S(=O)(=O)Nc2ncns2)cc1Cl [Ex 16-29, 4-[(4-{[(1R)-3-amino-1-methylpropyl]amino}butyl)-amino]-5-chloro-2-fluoro-N-1,2,4-thiadiazol-5-yl-benzenesulfonamide]	7.25	–
C[C@H](N)CNCCCCNc1cc(F)c(S(=O)(=O)Nc2ncns2)cc1Cl [Ex 15-05, 4-[(4-{[(2S)-2-aminopropyl]amino}butyl)amino]-5-chloro-2-fluoro-N-1,2,4-thiadiazol-5-ylbenzenesulfonamide]	7.92	–
CN[C@H](C)CNCCCCNc1cc(F)c(S(=O)(=O)Nc2ncc(F)s2)cc1Cl [Ex 16-65, 5-chloro-2-fluoro-N-(5-fluoro-1,3-thiazol-2-yl)-4-[(4-{[(2R)-2-(methylamino)propyl]amino}butyl)amino] benzenesulfonamide]	7.55	–
O=S(=O)(Nc1ncns1)c1cc(Cl)c(NCCCCNC[C@H]2CCN2)cc1F [Ex 13-02, 4-[(4-{[(2R)-azetidin-2-yl-methyl]-amino}butyl)amino]-5-chloro-2-fluoro-N-1,2,4-thiadiazol-5-yl-benzene-sulfonamide]	7.85	–
O=S(=O)(Nc1ncns1)c1cc(Cl)c(NCCCCNCCCNCCF)cc1F [Ex 16-58, 5-chloro-2-fluoro-4-{[4-({3-[(2-fluoroethyl)amino]-propyl}amino)butyl]amino}-N-1,2,4-thiadiazol-5-yl-benzenesulfonamide]	7.43	–
O=S(=O)(Nc1ncc(Cl)s1)c1cc(Cl)c(NCCCCNC[C@@H]2CCCN2)cc1F [Ex 7-9, 5-chloro-N-(5-chloro-1,3-thiazol-2-yl)-2-fluoro-4-[(4-{[(2S)-pyrrolidin-2-ylmethyl]amino}butyl)amino]benzenesulfonamide]	7.54	–
O=S(=O)(Nc1nccs1)c1cc(Br)c(NCCCCNC[C@@H]2CCCN2)cc1F [Ex 7-10, 5-bromo-2-fluoro-4-[(4-{[(2S)-pyrrolidin-2-ylmethyl]amino}butyl)amino]-N-1,3-thiazol-2-ylbenzenesulfonamide]	7.80	–
C[C@H](CN)NCCCCNc1cc(F)c(S(=O)(=O)Nc2ncns2)cc1Br [Ex 16-78, 4-[(4-{[(1R)-2-amino-1-methylethyl]amino}butyl)amino]-5-bromo-2-fluoro-N-1,2,4-thiadiazol-5-ylbenzenesulfonamide]	7.92	–
O=S(=O)(Nc1ncns1)c1cc(Cl)c(NCCCCNC2CNC2)cc1F [Ex 16-01, 4-{[4-(azetidin-3-ylamino)-butyl]-amino}-5-chloro-2-fluoro-N-1,2,4-thiadiazol-5-ylbenzenesulfonamide]	7.82	–
O=S(=O)(Nc1ncc(F)s1)c1cc(Cl)c(NCCCCNC[C@@H]2CCCN2)cc1F [Ex 7-11, 5-chloro-2-fluoro-N-(5-fluoro-1,3-thiazol-2-yl)-4-[(4-{[(2S)-pyrrolidin-2-ylmethyl]amino}butyl)amino]benzenesulfonamide]	8.00	–
